Test results from patent US20230233586A1, “COMPOUNDS AND METHODS FOR TREATING FUNGAL INFECTIONS” (Amplyx Pharmaceuticals, Inc., priority 2020, published 2023).

What was measured:
[1] = test system: clinical isolates of rare mold infections and rare yeast infections; test: Antifungal activity against clinical isolates of rare mold and rare yeast infections; assay type: cell-based; settings: broad range of clinical isolates of rare mold and rare yeast infections
Excerpt: These rare mold and rare yeast species generally pose no threat to healthy subjects, but can lead to invasive mold infections in immunocompromised individuals.

[2] = target: fungal glycosylphosphatidylinositol (GPI)-anchored wall transfer protein 1 (GWT1) enzyme (Saccharomyces cerevisiae, UniProt P47026); test: Inhibition of fungal GWT1 enzyme; assay type: biochemical
Excerpt: (§1) Compound 1A inhibits the fungal glycosylphosphatidylinositol (GPI)-anchored wall transfer protein 1 (GWT1) enzyme, a highly conserved inositol acylase that catalyzes an early step in the GPI-anchored biosynthesis pathway. This inhibition has pleiotropic effects on the fungal cell due to inhibition of cell wall mannoprotein localization, which comprises cell wall integrity, biofilm formation, germ tube formation, and fungal growth.

[3] = test system: Aspergillus fumigatus, Scedosporium prolificans, and Fusarium solani; test: 5-fluorouracil immunosuppressed mice with IMIs; assay type: in vivo
[4] = test system: Candida spp., Cryptococcus spp., Aspergillus spp., Scedosporium spp., Fusarium spp., and some Mucorales fungi; test: In vitro antifungal activity; assay type: cell-based; settings: including azole- and echinocandin-resistant strains
[5] = target: T1, phosphatidylinositol glycan anchor biosynthesis class W (PIGW) protein (Homo sapiens, UniProt Q7Z7B1); test: Inhibition of PIGW, closest mammalian ortholog of GWT1; assay type: biochemical; settings: closest mammalian ortholog of fungal GWT1
T1 sequence (Q7Z7B1 1-504): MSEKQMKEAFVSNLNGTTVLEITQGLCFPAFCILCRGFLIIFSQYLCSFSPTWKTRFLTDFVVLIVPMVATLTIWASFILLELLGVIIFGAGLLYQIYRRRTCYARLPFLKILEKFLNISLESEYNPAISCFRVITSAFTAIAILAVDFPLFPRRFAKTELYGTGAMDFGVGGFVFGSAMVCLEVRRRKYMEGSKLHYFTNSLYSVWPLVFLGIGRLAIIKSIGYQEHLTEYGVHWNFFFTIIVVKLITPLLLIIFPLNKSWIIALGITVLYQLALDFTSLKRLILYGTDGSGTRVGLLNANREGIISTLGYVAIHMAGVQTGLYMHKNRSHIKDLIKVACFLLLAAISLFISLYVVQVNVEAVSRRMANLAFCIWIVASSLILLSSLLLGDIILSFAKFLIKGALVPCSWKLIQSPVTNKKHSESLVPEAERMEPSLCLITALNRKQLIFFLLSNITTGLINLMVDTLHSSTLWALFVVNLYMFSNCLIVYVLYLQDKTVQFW
Excerpt: as §1

[6] = test system: Candida spp.; test: Open-label study in non-neutropenic patients with candidemia; assay type: in vivo, human
Protocol: Suspicion of antifungal-resistant candidemia is sufficient and subsequent documented resistance is not required for enrollment. The Study Drug Treatment Period will be up to a maximum of 14 days (inclusive of the loading dose [Study Day 1]). […] There will be a Follow-up Period of 4 weeks (+4 days) after EOT. The total duration of participation in the study is up to approximately 7.5 weeks (inclusive of the Screening Period [≤96 hours prior to Baseline]).
Patients with a yeast identified in a blood culture or a positive rapid diagnostic method are eligible to be consented and screened for the study. Patients must have at least 1 positive blood test for Candida spp. (or yeast suspected to be Candida) for a diagnosis of candidemia to be considered for enrollment into the study. Patients with a positive blood culture showing yeast suspected to be Candida must have identification of Candida spp. from positive blood culture confirmed prior to dosing. Screening and Baseline procedures and the start of Compound 1 study drug will be initiated within 96 hours from the time that the SOC blood sample for the Candida spp. positive culture or rapid diagnostic test was drawn. Patients with 2 days (>48 hours) equivalent of prior systemic antifungal treatment at approved doses to treat the current episode of candidemia within 96 hours before first dose will be excluded.
On Study Day 1 (or over the first 24 hours if started in the evening), a 1000 mg Compound 1 loading dose will be administered over 3 hours by IV infusion BID. On Study Days 2 and 3 of study drug, a 600 mg Compound 1 maintenance dose will be administered over 3 hours by IV infusion QD. On Study Day 4 and onward, the Compound 1 maintenance dose will be administered as either 600 mg Compound 1 IV infusion QD over 3 hours or 700 mg PO QD. […] Study drug will be administered for a maximum of 14 days. […] Candida spp. bloodstream infection will be monitored by daily blood culture during Study Drug Treatment until 2 consecutive blood cultures are negative, and at EOST, EOT, and 2 and 4 weeks after EOT, or Early Termination. Simultaneously drawn blood samples will be collected for Candida testing by T2 magnetic resonance (T2MR) assay at Baseline, during Study Drug Treatment, and EOST, or Early Termination. Other cultures, histopathology, and imaging tests to assess the site(s) and extent of candidemia infection at other sites will be conducted as clinically indicated, and the results should be recorded in the electronic Case Report Form (eCRF). The management of intravascular catheters, intravascular devices, and, if applicable, any drains will be recorded, including any associated microbiology results. Patients will be monitored for safety throughout the duration of the study.
On Study Day 1 (or over the first 24 hours if started in the evening), a 1000 mg Compound 1 loading dose will be administered over 3 hours by IV infusion BID. On Study Days 2 and 3 of study drug, a 600 mg Compound 1 maintenance dose will be administered over 3 hours by IV infusion QD. On Study Day 4 and onward, the Compound 1 maintenance dose will be administered as either 600 mg Compound 1 IV infusion QD over 3 hours or 700 mg PO QD. […] Study drug will be administered for a maximum of 14 days (inclusive of the loading dose [Study Day 1]). Tablets are to be administered at the same time each day, whole, and taken by mouth with water within 30 minutes of being removed from the refrigerator. No splitting or crushing of tablets is allowed.
If applicable, an assessment of efficacy will also be made at the end of this antifungal treatment at EOT.
Eradication is defined as a negative blood culture(s) for Candida spp. in the absence of additional antifungal therapy (except for protocol-allowed step-down treatment [e.g., fluconazole]) through EOT

[7] = test system: Candida spp.; test: In vitro activity against Candida spp. isolates from the study; assay type: cell-based; settings: including isolates resistant to other antifungal agents
Excerpt: A total of 21 patients were enrolled in the study: 20 were included in the mITT. Median duration of Compound 1 therapy was 11 days (range 5 to 14). All patients received IV Compound 1, 48% (10/21) received PO Compound 1.

[8] = in vivo
[9] = Tissue distribution; assay type: in vivo; settings: IV and PO formulations
Excerpt: Compound 1 has a novel mechanism of action with broad spectrum activity against Candida spp. (yeast) and Aspergillus spp. (mold), including activity against polyene and azole-resistant strains of Aspergillus spp. […] Compound 1 has the potential to be used as a first-line agent for the treatment of IMIs through a unique mechanism of action. Thus, compound 1 has potential to fill an unmet need for patients with limited or no antifungal treatment options due to documented/anticipated resistance, contraindication, intolerance, or lack of clinical response to standard of care (SOC) antifungal therapy.

[10] = test system: A. fumigatus, S. apiospermum, F. solani, and Rhizopus spp.; test: Cyclophosphamide and cortisone acetate immunosuppressed mice with IMIs; assay type: in vivo
[11] = Phase 1 studies in healthy volunteers, safety and tolerability; assay type: in vivo, human
Excerpt: In Phase 1 clinical studies of compound 1, the safety, tolerability, and PK of single and multiple ascending doses administered intravenously (IV) and orally (PO) have been studied. To date, a total of 197 healthy volunteers and 21 patients with acute myeloid leukemia (AML) have received compound 1 across 5 Phase 1 studies. The duration of the multiple-dose regimens in these studies was 7, 14, and 42 days (6 weeks).
The majority of the TEAEs were mild, transitory, and resolved without intervention. […] This IV dose regimen is identical to the IV dose regimen that will be used in this study. […] This PO-dose regimen is higher than the 700 mg PO dose that will be used in this study.

[12] = patients with renal insufficiency
[13] = patients with renal insufficiency (n=14)

fungal glycosylphosphatidylinositol (GPI)-anchored wall transfer protein 1 (GWT1) enzyme, sequence (P47026 whole entry): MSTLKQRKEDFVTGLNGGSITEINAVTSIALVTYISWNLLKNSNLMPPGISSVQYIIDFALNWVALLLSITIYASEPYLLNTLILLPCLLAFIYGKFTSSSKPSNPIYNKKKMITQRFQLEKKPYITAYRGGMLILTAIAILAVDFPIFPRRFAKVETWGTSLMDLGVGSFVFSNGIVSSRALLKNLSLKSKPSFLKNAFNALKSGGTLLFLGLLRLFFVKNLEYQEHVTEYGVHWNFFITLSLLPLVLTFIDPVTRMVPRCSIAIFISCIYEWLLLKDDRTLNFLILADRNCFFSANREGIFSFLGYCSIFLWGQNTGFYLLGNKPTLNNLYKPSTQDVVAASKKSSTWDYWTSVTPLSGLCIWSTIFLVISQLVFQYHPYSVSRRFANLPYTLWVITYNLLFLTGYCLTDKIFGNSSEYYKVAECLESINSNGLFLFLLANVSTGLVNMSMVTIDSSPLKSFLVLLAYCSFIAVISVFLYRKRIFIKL

In the case of Nc1ncccc1-c1cc(Cc2ccc(COc3ccccn3)cc2)no1 [Compound 1A], the “antifungal activity against clinical isolates” value [1] is reported as “demonstrated antifungal activity”, the “inhibition of fungal GWT1 enzyme” value [2] is reported as “inhibits” and the “pulmonary fungal colony counts” value [3] is reported as “reduced pulmonary fungal colony counts”. For the same compound, the survival rates [3] was “statistically significantly improved survival rates”, the “in vitro antifungal activity” value [4] was “broad in vitro antifungal activity” and the “inhibition of PIGW protein” value [5] was “does not inhibit”.
In the case of Nc1c(-c2cc(Cc3ccc(COc4ccccn4)cc3)no2)ccc[n+]1COP(=O)([O-])O [Compound 1], the “DRC-assessed success rate at EOST” value ([6]; mITT (16/20)) is reported as 80%, the “Survival at day 30” value ([6]; mITT (17/20)) is reported as 85% and the tolerability ([6]; patients with candidemia, up to 14 days) is reported as “well-tolerated with no treatment-related serious adverse events or discontinuations”. The “effect of renal impairment on exposure” value [6, 12] was “did not increase exposure”, the treatment-related adverse events [6, 12] was “no treatment-related adverse events” and the “Treatment success rate at EOST” value ([6]; patients with renal insufficiency (12/14)) was 86%. The “worsening of renal function at EOST” value [6, 13] was “None”, the “worsening of renal function during the follow-up period” value [6, 13] was 4 patients and the “in vitro activity against Candida spp. from the study” value [7] was “potent in vitro activity”. The “conversion of prodrug to compound 1A” value [8] was “rapidly converted in vivo”, the “pulmonary fungal colony counts” value [3] was “reduced pulmonary fungal colony counts” and the survival rates [3] was “statistically significantly improved survival rates”. The tissue distribution [9] was “wide-tissue distribution, including the eye and central nervous system”, the fungal burden [10] was “reduced fungal burden” and the survival rates [10] was “statistically significantly improved survival rates”. For the same compound, the DLTs ([11]; 2 Phase 1 studies, healthy volunteers) was “No DLTs were observed”, the safety and tolerability ([11]; 2 Phase 1 studies, healthy volunteers, IV and PO formulations) was “safe and well tolerated” and the safety and tolerability ([11]; FIH Phase 1: 1000 mg IV 2-hour infusion BID Day 1, then 600 mg IV 1-hour infusion QD Days 2 through 7) was “safe and well tolerated”. For the same compound, the safety and tolerability ([11]; second Phase 1 study: 1000 mg PO QD Days 1 through 14) was “safe and well tolerated”.
